Structures can show the parent of a compound that is named as a salt.
What follows are compounds tested on sodium channel. Details: rat cerebral cortex membrane, 5 nM [^3 H]batracotoxinin A20-α-benzoate, 1 μM tetrodotoxin, 100 μg/mL scorpion toxin, 37° C., 1 hour.
Type: binding, Wistar rats
Work on `Cc1c(C)c2c(c(C)c1N)CC(C)(CN1CCN(Cc3ccc(Cl)cc3)CC1)O2` (centres unmarked) [Example 33, 2-[[4-(4-Chlorobenzyl)-1-piperazinyl]methyl]-2,3-dihydro-2,4,6,7-tetramethyl-5-benzofuranamine trihydrochloride] yielded an IC50 of 310 nM. `Cc1c(C)c2c(c(C)c1N)CC(C)(CN1CCC(NC(c3ccccc3)c3ccccc3)CC1)O2` (centres unmarked) [Example 40, 1-[(5-Amino-2,3-dihydro-2,4,6,7-tetramethylbenzofuran-2-yl)methyl]-N-(diphenylmethyl)-4-piperidinamine trihydrochloride] showed an IC50 of 160 nM. `CCNc1c(C)c(C)c2c(c1C)CC(C)(CN1CCC(c3ccccc3)CC1)O2` (centres unmarked) [Reference Example 8, N-ethyl-2,3-dihydro-2,4,6,7-tetramethyl-2-[(4-phenyl-1-piperidinyl)methyl]-5-benzofuranamine] was tested, and the IC50 was 640 nM. Work on `Cc1ccc(CN2CCN(CC3(C)Cc4c(C)c(N)c(C)c(C)c4O3)CC2)cc1` (centres unmarked) [Example 34, 2,3-Dihydro-2,4,6,7-tetramethyl-2-[[4-(4-methylbenzyl)-1-piperazinyl]methyl]-5-benzofuranamine trihydrochloride] yielded an IC50 of 420 nM. For `COc1cccc(CN2CCN(CC3(C)Cc4c(C)c(N)c(C)c(C)c4O3)CC2)c1` (centres unmarked) [Example 30, 2,3-Dihydro-2-[[4-(3-methoxybenzyl)-1-piperazinyl]methyl]-2,4,6,7-tetramethyl-5-benzofuranamine trihydrochloride], the IC50 was 390 nM. `Cc1c(C)c2c(c(C)c1N)CC(C)(CN1CCC(CCc3ccccc3)CC1)O2` (centres unmarked) [Example 1, 2,3-Dihydro-2,4,6,7-tetramethyl-2-[[4-(2-phenylethyl)-1-piperidinyl]methyl]-5-benzofuranamine] showed an IC50 of 220 nM. `COc1ccc(CN2CCN(CC3(C)Cc4c(C)c(N)c(C)c(C)c4O3)CC2)cc1` (centres unmarked) [Example 29, 2,3-Dihydro-2-[[4-(4-methoxybenzyl)-1-piperazinyl]methyl]-2,4,6,7-tetramethyl-5-benzofuranamine trihydrochloride] gave an IC50 of 210 nM. For `COc1ccc(CN2CCN(CC3(C)Cc4c(C)c(N)c(C)c(C)c4O3)CC2)cc1OC` (centres unmarked) [Example 32, 2-[[4-(3,4-Dimethoxybenzyl)-1-piperazinyl]methyl]-2,3-dihydro-2,4,6,7-tetramethyl-5-benzofuranamine trihydrochloride], the IC50 was 250 nM. `Cc1c(C)c2c(c(C)c1N)CC(C)(CN1CCN(CCc3ccccc3)CC1)O2` (centres unmarked) [Example 27, 2,3-Dihydro-2,4,6,7-tetramethyl-2-[[4-(2-phenylethyl)-1-piperazinyl]methyl]-5-benzofuranamine] gave an IC50 of 200 nM. Compound `Cc1c(C)c2c(c(C)c1N)CC(C)(CN1CCN(Cc3ccccc3)CC1)O2` (centres unmarked) [Example 6, 2-[(4-Benzyl-1-piperazinyl)methyl]-2,3-dihydro-2,4,6,7-tetramethyl-5-benzofuranamine trihydrochloride] has an IC50 of 790 nM. Work on `Cc1c(C)c2c(c(C)c1N)CC(C)(CN1CCC(CCCOC(c3ccccc3)c3ccccc3)CC1)O2` (centres unmarked) [Example 26, 2-[[4-[3-(Diphenylmethoxy)propyl]-1-piperidinyl]methyl]-2,3-dihydro-2,4,6,7-tetramethyl-5-benzofuranamine oxalate] yielded an IC50 of 220 nM. `Cc1c(C)c2c(c(C)c1N)CC(C)(CN1CCC(OC(c3ccc(F)cc3)c3ccc(F)cc3)CC1)O2` (centres unmarked) [Example 28, 2-[[4-[Bis(4-fluorophenyl)methoxy]-1-piperidinyl]methyl]-2,3-dihydro-2,4,6,7-tetramethyl-5-benzofuranamine oxalate] was tested, and the IC50 was 220 nM. `Cc1c(C)c2c(c(C)c1N)CC(C)(CN1CCC(CCCc3ccccc3)CC1)O2` (centres unmarked) [Example 2, 2,3-Dihydro-2,4,6,7-tetramethyl-2-[[4-(3-phenylpropyl)-1-piperidinyl]methyl]-5-benzofuranamine] gave an IC50 of 280 nM. `Cc1c(C)c2c(c(C)c1N)CC(C)(CN1CCC(OC(c3ccccc3)c3ccccc3)CC1)O2` (centres unmarked) [Example 17, 2-[[4-(Diphenylmethoxy)-1-piperidinyl]methyl]-2,3-dihydro-2,4,6,7-tetramethyl-5-benzofuranamine oxalate] gave an IC50 of 320 nM. Compound `Cc1c(C)c2c(c(C)c1N)CC(C)(CN1CCC(Cc3ccccc3)CC1)O2` (centres unmarked) [Example 5, 2-[(4-Benzyl-1-piperidinyl)methyl]-2,3-dihydro-2,4,6,7-tetramethyl-5-benzofuranamine] has an IC50 of 520 nM. In the case of `Cc1c(C)c2c(c(C)c1N)CC(C)(CN1CCC(COC(c3ccccc3)c3ccccc3)CC1)O2` (centres unmarked) [Example 24, 2-[[4-[(Diphenylmethoxy)methyl]-1-piperidinyl]methyl]-2,3-dihydro-2,4,6,7-tetramethyl-5-benzofuranamine oxalate], the IC50 is reported as 410 nM. With `Cc1c(C)c2c(c(C)c1N)CC(C)(CN1CCc3ccccc3CC1)O2` (centres unmarked) [Reference Example 10, 2,3-Dihydro-2,4,6,7-tetramethyl-2-[(2,3,4,5-tetrahydro-1H-3-benzazepin-3-yl)methyl]-5-benzofuranamine dihydrochloride] the IC50 was 470 nM. With `Cc1c(C)c2c(c(C)c1N)CC(C)(CN1CCC(CCOC(c3ccccc3)c3ccccc3)CC1)O2` (centres unmarked) [Example 25, 2-[[4-[2-(Diphenylmethoxy)ethyl]-1-piperidinyl]methyl]-2,3-dihydro-2,4,6,7-tetramethyl-5-benzofuranamine oxalate] the IC50 was 340 nM. `COc1ccccc1CN1CCN(CC2(C)Cc3c(C)c(N)c(C)c(C)c3O2)CC1` (centres unmarked) [Example 31, 2,3-Dihydro-2-[[4-(2-methoxybenzyl)-1-piperazinyl]methyl]-2,4,6,7-tetramethyl-5-benzofuranamine trihydrochloride] was tested, and the IC50 was 490 nM. In the case of `Cc1c(C)c2c(c(C)c1N)CC(C)(CN1CCC(CCNC(c3ccccc3)c3ccccc3)CC1)O2` (centres unmarked) [Example 41, 1[(5-Amino-2,3-dihydro-2,4,6,7-tetramethylbenzofuran-2-yl)methyl]-N-(diphenylmethyl)-4-piperidineethylamine trihydrochloride], the IC50 is reported as 140 nM. Compound `Cc1c(C)c2c(c(C)c1N)CC(C)(CN1CCC(CCCCc3ccccc3)CC1)O2` (centres unmarked) [Example 3, 2,3-Dihydro-2,4,6,7-tetramethyl-2-[[4-(4-phenylbutyl)-1-piperidinyl]methyl]-5-benzofuranamine] has an IC50 of 260 nM. With `Cc1c(C)c2c(c(C)c1N)CC(C)(CN1CCN(Cc3ccc4c(c3)OCO4)CC1)O2` (centres unmarked) [Example 4, 2,3-Dihydro-2,4,6,7-tetramethyl-2-[[4-[(3,4-methylenedioxyphenyl)methyl]-1-piperazinyl]methyl]-5-benzofuranamine trihydrochloride] the IC50 was 280 nM. For `Cc1c(C)c2c(c(C)c1N)CC(C)(CN1CCC(CCNCCC(c3ccccc3)c3ccccc3)CC1)O2` (centres unmarked) [Example 42, 1-[(5-Amino-2,3-dihydro-2,4,6,7-tetramethylbenzofuran-2-yl)methyl]-N-(3,3-diphenylpropyl)-4-piperidineethylamine trihydrochloride], the IC50 was 160 nM.
